The NIST ThermoML archive (doi:10.1021/acs.jced.9b00334)

Conditions: Liquid, Vibrating tube method

CCn1cc[n+](C)c1.CCn1cc[n+](C)c1.[Co+2].[N-]=C=S.[N-]=C=S.[N-]=C=S.[N-]=C=S [bis(1-ethyl-3-methylimidazolium) tetrathiocyanatocobaltate]
mass density [kg/m3]
Conditions	283.1 K	293.1 K	303.1 K	313.2 K	323.2 K	333.2 K	343.1 K	353.1 K	363.1 K
100 kPa	1286.1	1278.7	1271.5	1264.4	1257.3	1250.3	1243.3	1236.4	1229.5
1000 kPa	1286.5	1279.1	1272	1264.9	1257.8	1250.7	1243.7	1236.9	1230.1
2000 kPa	1287	1279.6	1272.5	1265.3	1258.4	1251.3	1244.3	1237.5	1230.6
5000 kPa	1288.4	1281.1	1273.9	1266.8	1259.9	1253	1246	1239.2	1232.4
7000 kPa	1289.3	1282.1	1274.9	1267.9	1260.9	1253.9	1247	1240.3	1233.5
10000 kPa	1290.6	1283.4	1276.3	1269.4	1262.5	1255.3	1248.6	1241.7	1235.1
15000 kPa	1292.8	1285.7	1278.6	1271.7	1265	1257.9	1251.3	1244.3	1237.7
20000 kPa	1295	1287.9	1281	1274.1	1267.3	1260.1	1253.7	1246.9	1240.4
25000 kPa	1297.1	1290	1283.1	1276.3	1269.6	1262.7	1256	1249.4	1243
30000 kPa	1299.1	1292.1	1285.4	1278.7	1271.9	1265.1	1258.3	1251.9	1245.6
35000 kPa	1301.1	1294.3	1287.6	1280.9	1274.1	1267.5	1260.6	1254.3	1248.2
40000 kPa	1303.2	1296.3	1289.6	1282.9	1276.4	1269.5	1263	1256.7	1250.5
45000 kPa	1305.2	1298.4	1291.7	1285.1	1278.6	1272	1265.5	1259.1	1252.7
50000 kPa	1307.2	1300.5	1294	1287.4	1280.8	1274.2	1267.7	1261.2	1254.9
55000 kPa	1309	1302.5	1295.9	1289.5	1282.9	1276.4	1269.6	1263.6	1257.2
60000 kPa	1311	1304.3	1297.9	1291.4	1285	1278.4	1271.8	1265.7	1259.4
65000 kPa	1312.9	1306.3	1299.7	1293.3	1287	1280.4	1274.1	1267.7	1261.6
70000 kPa	1314.8	1308.3	1301.7	1295.3	1288.9	1282.4	1275.9	1269.9	1263.7
75000 kPa	1316.6	1310.2	1303.7	1297.2	1290.9	1284.6	1277.9	1272	1265.8
80000 kPa	1318.3	1312.2	1305.4	1299	1292.8	1286.5	1280.2	1274.2	1267.8
85000 kPa	1320	1313.9	1307.4	1301.1	1294.7	1288.6	1282.4	1276.1	1270.1
90000 kPa	1321.9	1315.6	1309.4	1302.9	1296.8	1290.4	1284.3	1278.2	1272.1
95000 kPa	1323.8	1317.5	1311	1304.8	1298.7	1292.5	1286.1	1280.2	1273.8
